Legend:
[1] = system: NLRP3 inflammasome (IL-1β production in THP-1 cells); experiment: IL-1β TR-FRET Assay (percentage of inhibition at 300 nM, 6 μM or 10 μM); type: cell-based, human; conditions: Homo sapiens, THP-1, 300 nM, LPS priming, ATP activation, read-out: IL-1β inhibitory rate at 300 nM (%)
Procedure, shortened: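 Percent inhibition of IL-1β used DMSO wells as 0% and 3 μM MCC-950 wells as full inhibition, with supernatant read by HTRF. Beforehand, IFN-γ-differentiated (25 ng/mL, 24 h), LPS-primed (50 ng/mL, 24 h) THP-1 cells received compound 30 min before inflammasome activation by 20 mM ATP for 2 h.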

[2] = system: TNF-α (NF-κB pathway, THP-1 cells); experiment: TNF-α Assay (IC50); type: cell-based, human; conditions: Homo sapiens, 600 ng/mL LPS, 3 hours
Experimental: TNF-α Assay (Reported as IC50)
Monocytic THP-1 cells (ATCC: TIB-202) were maintained in accordance with the provider's instructions in RPMI media (Life Technologies, Cat #A10491-01); RPMI was supplemented with 10% heat inactivated fetal bovine serum (Hyclone Cat #SH30396.03). The cells were differentiated into macrophages by the addition of 25 ng/mL IFN-7 for 24 hours at 37° C./5% CO2. Media was exchanged with fresh media with no FBS. The cells were plated at 40,000 cells per well in 384-well flat-bottom cell culture plates (Costar 3764) containing compounds (added in 1:1000) in a 1:3.16 serial dilution series in DMSO and were incubated for 30 minutes at 37° C./5% CO2. The NF-κB pathway was activated with the addition of 600 ng/mL LPS and the cells were incubated for 3 hours at 37° C./5% CO2. At the end of the incubation period, supernatant ([…]) was removed, and TNF-alpha were monitored using an ELISA (Human TNF-α ELISA, R&D systems, Cat #DY210) according to the manufacturer's instructions. 100% inhibition is determined with positive control, TPCA-1.
The IC50 values in the TNF-α assay were calculated from a plot of percentage of inhibition versus the inhibitor concentration by a logistics curve fit according to: Y=[Bottom+(Top−Bottom)]/(1+10^[(Log IC50−X)·Hill Slope], where Y was the […] at the inhibitor concentration, X, “Bottom” was the lowest inhibition value, i.e., 0%, “Top” was the maximum inhibition value, i.e., 100%, and the “Hill Slope” described the slope of the sigmoidal curve between the “Bottom” and “Top” values. The curve fitting was conducted with internally developed software.

Row | SMILES | IC50 [2] [µM] | inhibition at 0.3 µM [1] [%]
1 | COCc1nc2nn(-c3c(C)cc(C)cc3O)cc2c(=O)n1C [Example 8, 2-(2-hydroxy-4,6-dimethylphenyl)-6-(methoxymethyl)-5-methyl-2,5-dihydro-4H-pyrazolo [3,4-d]pyrimidin-4-one] | > 30 | 92
2 | Cc1cc(C)c(-n2cc3c(=O)[nH]c(-c4ccccn4)nc3n2)c(O)c1 [Example 9, 2-(2-hydroxy-4,6-dimethylphenyl)-6-(pyridin-2-yl)-2,5-dihydro-4H-pyrazolo[3,4-d]pyrimidin-4-one] | > 30 | 100
3 | Cc1cc(C)c(-n2cc3c(=O)[nH]c(C(C)C)nc3n2)c(O)c1 [Example 10, 2-(2-hydroxy-4,6-dimethylphenyl)-6-(propan-2-yl)-2,5-dihydro-4H-pyrazolo[3,4-d]pyrimidin-4-one] | > 30 | 98
4 | Cc1cc(C)c(-n2cc3c(=O)[nH]c(-c4ccc(F)cn4)nc3n2)c(O)c1 [Example 13, 6-(5-fluoropyridin-2-yl)-2-(2-hydroxy-4,6-dimethylphenyl)-2,5-dihydro-4H-pyrazolo[3,4-d]pyrimidin-4-one] | > 30 | 99
5 | Cc1cc(C)c(-n2cc3c(=O)[nH]c(-c4ccnc(C)n4)nc3n2)c(O)c1 [Example 15, 2-(2-hydroxy-4,6-dimethylphenyl)-6-(2-methylpyrimidin-4-yl)-2,5-dihydro-4H-pyrazolo [3,4-d]pyrimidin-4-one] | > 30 | 99
6 | CCOc1nc2nn(-c3c(C)ccc(C)c3O)cc2c(=O)[nH]1 [Example 16, 6-ethoxy-2-(2-hydroxy-3,6-dimethylphenyl)-2,5-dihydro-4H-pyrazolo[3,4-d]pyrimidin-4-one] | > 30 | 101
7 | CCCCc1nc2nn(-c3c(C)cc(C)cc3O)cc2c(=O)[nH]1 [Example 17, 6-butyl-2-(2-hydroxy-4,6-dimethylphenyl)-2,5-dihydro-4H-pyrazolo[3,4-d]pyrimidin-4-one] | > 30 | 99
8 | CCOc1nc2nn(-c3c(F)cc(Br)cc3C(F)(F)F)cc2c(=O)[nH]1 [Example 19, 2-[4-bromo-2-fluoro-6-(trifluoromethyl)phenyl]-6-ethoxy-2,5-dihydro-4H-pyrazolo[3,4-d]pyrimidin-4-one] | > 30 | 95
9 | COc1ccc(-c2nc3nn(-c4c(C)cc(C)cc4O)cc3c(=O)[nH]2)nc1 [Example 21, 2-(2-hydroxy-4,6-dimethylphenyl)-6-(5-methoxypyridin-2-yl)-2,5-dihydro-4H-pyrazolo[3,4-d]pyrimidin-4-one] | > 30 | 98
10 | COCCOc1nc2nn(-c3c(C)cc(C)cc3O)cc2c(=O)[nH]1 [Example 22, 2-(2-hydroxy-4,6-dimethylphenyl)-6-(2-methoxyethoxy)-2,5-dihydro-4H-pyrazolo [3,4-d]pyrimidin-4-one] | > 30 | 101
11 | Cc1cc(C)c(-n2cc3c(=O)[nH]c(-c4ccn(C)n4)nc3n2)c(O)c1 [Example 23, 2-(2-hydroxy-4,6-dimethylphenyl)-6-(1-methyl-1H-pyrazol-3-yl)-2,5-dihydro-4H-pyrazolo[3,4-d]pyrimidin-4-one] | > 30 | 100
12 | Cc1cc(C)c(-n2cc3c(=O)[nH]c(C4(C)CC4)nc3n2)c(O)c1 [Example 25, 2-(2-hydroxy-4,6-dimethylphenyl)-6-(1-methylcyclopropyl)-2,5-dihydro-4H-pyrazolo[3,4-d]pyrimidin-4-one] | > 30 | 100
13 | CCOc1nc2nn(-c3c(C)cc(C)cc3O)c(Cl)c2c(=O)[nH]1 [Example 26, 3-chloro-6-ethoxy-2-(2-hydroxy-4,6-dimethylphenyl)-2,5-dihydro-4H-pyrazolo[3,4-d]pyrimidin-4-one] | > 30 | 94
14 | COC(C)Cc1nc2nn(-c3c(C)cc(C)cc3O)cc2c(=O)[nH]1 (stereo not shown) [Example 27, 2-(2-hydroxy-4,6-dimethylphenyl)-6-(2-methoxypropyl)-2,5-dihydro-4H-pyrazolo[3,4-d]pyrimidin-4-one] | > 30 | 94
15 | COCc1nc2nn(-c3c(C)cc(C)cc3O)cc2c(=O)[nH]1 [Example 28, 2-(2-hydroxy-4,6-dimethylphenyl)-6-(methoxymethyl)-2,5-dihydro-4H-pyrazolo[3,4-d]pyrimidin-4-one] | > 30 | 101
16 | Cc1cc(C)c(-n2cc3c(=O)[nH]c(-c4cccnn4)nc3n2)c(O)c1 [Example 30, 2-(2-hydroxy-4,6-dimethylphenyl)-6-(pyridazin-3-yl)-2,5-dihydro-4H-pyrazolo[3,4-d]pyrimidin-4-one] | > 30 | 100
17 | CCOc1nc2nn(-c3ccc(C)cc3O)c(Cl)c2c(=O)[nH]1 [Example 31, 3-chloro-6-ethoxy-2-(2-hydroxy-4-methylphenyl)-2,5-dihydro-4H-pyrazolo[3,4-d]pyrimidin-4-one] | > 30 | 99
18 | Cc1cc(C)c(-n2cc3c(=O)[nH]c(OCC(F)F)nc3n2)c(O)c1 [Example 32, 6-(2,2-difluoroethoxy)-2-(2-hydroxy-4,6-dimethylphenyl)-2,5-dihydro-4H-pyrazolo[3,4-d]pyrimidin-4-one] | > 30 | 105
19 | COC1(c2nc3nn(-c4c(C)cc(C)cc4O)cc3c(=O)[nH]2)CCC1 [Example 35, 2-(2-hydroxy-4,6-dimethylphenyl)-6-(1-methoxycyclobutyl)-2,5-dihydro-4H-pyrazolo[3,4-d]pyrimidin-4-one] | > 30 | 96
20 | COCCc1nc2nn(-c3c(C)cc(C)cc3O)cc2c(=O)[nH]1 [Example 38, 2-(2-hydroxy-4,6-dimethylphenyl)-6-(2-methoxyethyl)-2,5-dihydro-4H-pyrazolo[3,4-d]pyrimidin-4-one] | > 30 | 100

Further lines, with some results ahead:

Row | IC50 [2] [µM] | SMILES | inhibition at 0.3 µM [1] [%]
21 | > 30 | CCOc1nc2nn(-c3c(O)cc(C)cc3C3CC3)cc2c(=O)[nH]1 [Example 11, 2-(2-cyclopropyl-6-hydroxy-4-methylphenyl)-6-ethoxy-2,5-dihydro-4H-pyrazolo[3,4-d]pyrimidin-4-one] | 99
22 | > 30 | Cc1cc(C)c(-n2cc3c(=O)[nH]c(O[C@H]4CCOC4)nc3n2)c(O)c1 [Example 14, 2-(2-hydroxy-4,6-dimethylphenyl)-6-{[(3S)-oxolan-3-yl]oxy}-2,5-dihydro-4H-pyrazolo[3,4-d]pyrimidin-4-one] | 96
23 | > 30 | Cc1cc(C)c(-n2cc3c(=O)[nH]c(C4CCCCO4)nc3n2)c(O)c1 (stereo not shown) [Example 18, 2-(2-hydroxy-4,6-dimethylphenyl)-6-(oxan-2-yl)-2,5-dihydro-4H-pyrazolo[3,4-d]pyrimidin-4-one] | 99
24 | > 30 | Cc1cc(C)c(-n2cc3c(=O)[nH]c(-c4ccccc4F)nc3n2)c(O)c1 [Example 20, 6-(2-fluorophenyl)-2-(2-hydroxy-4,6-dimethylphenyl)-2,5-dihydro-4H-pyrazolo[3,4-d]pyrimidin-4-one] | 100
25 | > 30 | CCOc1nc2nn(-c3c(C)cc(Br)cc3F)cc2c(=O)[nH]1 [Example 24, 2-(4-bromo-2-fluoro-6-methylphenyl)-6-ethoxy-2,5-dihydro-4H-pyrazolo[3,4-d]pyrimidin-4-one] | 99
26 | > 30 | Cc1cc(C)c(-n2cc3c(=O)[nH]c(C4CCCO4)nc3n2)c(O)c1 (stereo not shown) [Example 29, 2-(2-hydroxy-4,6-dimethylphenyl)-6-(oxolan-2-yl)-2,5-dihydro-4H-pyrazolo[3,4-d]pyrimidin-4-one] | 97
27 | > 30 | Cc1cc(C)c(-n2cc3c(=O)[nH]c(CC4CCCO4)nc3n2)c(O)c1 (stereo not shown) [Example 33, 2-(2-hydroxy-4,6-dimethylphenyl)-6-[(oxolan-2-yl)methyl]-2,5-dihydro-4H-pyrazolo[3,4-d]pyrimidin-4-one] | 97
28 | > 30 | Cc1cc(C)c(-n2cc3c(=O)[nH]c(-c4ncccn4)nc3n2)c(O)c1 [Example 34, 2-(2-hydroxy-4,6-dimethylphenyl)-6-(pyrimidin-2-yl)-2,5-dihydro-4H-pyrazolo[3,4-d]pyrimidin-4-one] | 98
29 | > 30 | CCOc1nc2nn(-c3c(C)cc(C)cc3O)c(C)c2c(=O)[nH]1 [Example 37, 6-ethoxy-2-(2-hydroxy-4,6-dimethylphenyl)-3-methyl-2,5-dihydro-4H-pyrazolo[3,4-d]pyrimidin-4-one] | 101
